Reference: patent US20020119939A1, “Stable aqueous deoxyfructosazine solution” (priority 2000, published 2002)

Assay: study of the stability of aqueous deoxyfructosazine solutions (HPLC)
Type: physicochemical
Details: 1 mg/ml solution
Description: The study of the stability of aqueous deoxyfructosazine solutions was carried out according to the following protocol:
A deoxyfructosazine solution (1 mg/ml) is prepared using an aqueous 0.05M phosphoric acid solution. Samples of the solution are adjusted to pH 2, 3, 4, 5, 6, 7, 8 and 9 by addition of sodium hydroxide. The solutions thus obtained are stored in glass bottles protected from the light, at 4° C. (control solution), 25° C., 45° C. and 60° C. After 2, 7 and 15 days, the samples are diluted 5-fold with a 20 mM, pH 7 phosphate buffer and the stability is examined by high pressure liquid chromatography (HPLC).

- % of decomposition product calculated relative to the total area of the peaks, Product A (pH 2, stored 15 days at 45° C.): 1.52%
- % of decomposition product calculated relative to the total area of the peaks, Product A (pH 2, stored 15 days at 60° C.): 6.94%
- % of decomposition product calculated relative to the total area of the peaks, Product B (pH 2, stored 15 days at 60° C.): 0.02%
- % of decomposition product calculated relative to the total area of the peaks, Product A (pH 3, stored 15 days at 45° C.): 0.16%
- % of decomposition product calculated relative to the total area of the peaks, Product A (pH 3, stored 15 days at 60° C.): 0.87%
- % of decomposition product calculated relative to the total area of the peaks, Product B (pH 3, stored 15 days at 60° C.): 0.03%
- % of decomposition product calculated relative to the total area of the peaks, Product A (pH 4, stored 15 days at 60° C.): 0.07%
- % of decomposition product calculated relative to the total area of the peaks, Product B (pH 4, stored 15 days at 60° C.): 0.05%
- % of decomposition product calculated relative to the total area of the peaks, Product B (pH 5, stored 15 days at 45° C.): 0.03%
- % of decomposition product calculated relative to the total area of the peaks, Product B (pH 5, stored 15 days at 60° C.): 0.24%
- % of decomposition product calculated relative to the total area of the peaks, Product B (pH 6, stored 15 days at 45° C.): 0.21%
- % of decomposition product calculated relative to the total area of the peaks, Product B (pH 6, stored 15 days at 60° C.): 0.71%
- % of decomposition product calculated relative to the total area of the peaks, Product B (pH 7, stored 15 days at 45° C.): 0.69%
- % of decomposition product calculated relative to the total area of the peaks, Product B (pH 7, stored 15 days at 60° C.): 13.9%
- % of decomposition product calculated relative to the total area of the peaks, Product B (pH 8, stored 15 days at 45° C.): 0.95%
- % of decomposition product calculated relative to the total area of the peaks, Product B (pH 8, stored 15 days at 60° C.): 37.9%
- % of decomposition product calculated relative to the total area of the peaks, Product B (pH 9, stored 15 days at 45° C.): 1.92%
- % of decomposition product calculated relative to the total area of the peaks, Product B (pH 9, stored 15 days at 60° C.): 37.7%
SMILES: OC[C@@H](O)[C@@H](O)[C@H](O)c1cnc(C[C@H](O)[C@H](O)CO)cn1 [deoxyfructosazine, 2-((1R, 2S, 3R)1,2,3,4-tetrahydroxybutyl)-5-((2′S, 3′R)2′, 3′, 4′-trihydroxy-butylpyrazine)]
